Reference: patent publication US20250340554A1, “5-Amino-1H-Pyrrolo[3,2-b]Pyridine-2-Carboxamide Derivatives as MTA-Cooperative Inhibitors of PRMT5” (BeOne Medicines I GmbH, priority 2023, published 2025)

Columns and labels:
HCT116-MTAP-KO = assay: Compounds cell killing in HCT116 isogenic pair (Cell Titer-Glo viability), MTAP-KO cells; type: cell-based; settings: Homo sapiens, HCT-116, 144 h, 6 days, 0-10 μM compound, * = more than 50% viability inhibition at tested concentration without a full curve
Source text: (§1) HCT116 cell line was obtained from ATCC (CCL-247). It has a mutation in codon 13 of the ras proto-oncogene and can be used as a positive control for PCR assays of mutation in this codon. HCT116-MTAP-KO was knocked-out-MTAP-gene based HCT116, and one single clone was passed for this assay. HCT116-mock-RNA-KO was knocked-out-mock-gene based HCT116 with MTAP wildtype genotype. The base medium for HCT116 isogenic pair is RPMI 1640, HEPES (Gibco, 22400105). To make the complete growth medium, add the following components to the base medium: fetal bovine serum to a final concentration of 10% (Gibco, 10099-141C). The cell line was grown in a humidified 5% CO2 atmosphere at 37° C. and regularly tested for the presence of mycoplasma with MycoAlert™ PLUS Mycoplasma Detection Kit (Lonza, LT07-710).
(§2) • Seed HCT116-mock-RNA-KO (400/well) or HCT116-MTAP-KO (400/well) cells into a 96-well plate (Greiner: 655090), 100 μL/well. • Incubate at 37° C., 5% CO2, overnight. • Add 50 μL fresh growth-medium containing serial dilution of compounds for a final compound concentration of 0-10 μM to each well. • Incubate at 37° C., 5% CO2, 6 days. • The cell viability detected by Cell Titer-Glo (Promega, G7573). Add 70 μL of CellTiter-Glo® reagent in each well. • Incubate at room temperature for 10 minutes to stabilize luminescent signal. • Analyze with Microplate Reader (TECAN, SPARK) and fit IC50 using Prism® 9.

HCT116-mock-RNA-KO = assay: Compounds cell killing in HCT116 isogenic pair (Cell Titer-Glo viability), mock-RNA-KO cells (MTAP wildtype); type: cell-based; settings: Homo sapiens, HCT-116, 144 h, 6 days, 0-10 μM compound
Source text: as §1, §2

Row | Structure (SMILES) | IC50 (HCT116-MTAP-KO) | IC50 (HCT116-mock-RNA-KO)
1 | Cc1cc2[nH]c(C(=O)N(Cc3ccc(-c4c(F)cccc4F)cn3)[C@@H]3CCCc4c(C5CC5)ccnc43)cc2nc1N (stereo in doubt) [Example A6, 5-amino-N-(4-cyclopropyl-5,6,7,8-tetrahydroquinolin-8-yl)-N-((5-(2,6-difluorophenyl)pyridin-2-yl)methyl)-6-methyl-1H-pyrrolo[3,2-b]pyridine-2-carboxamide] | < 4.6 nM | 1490 nM
2 | Cc1cc2[nH]c(C(=O)N(Cc3ccc(-c4c(F)cccc4F)cn3)[C@@H]3CCCc4cccnc43)cc2nc1N [Example A1, (R)-5-amino-N-((5-(2,6-difluorophenyl)pyridin-2-yl)methyl)-6-methyl-N-(5,6,7,8-tetrahydroquinolin-8-yl)-1H-pyrrolo[3,2-b]pyridine-2-carboxamide] | < 0.5 nM | 155 nM
3 | Cc1cc2[nH]c(C(=O)N(Cc3ccc(-c4ccccc4)cn3)[C@@H]3CCCc4cccnc43)cc2nc1N [Example A2, (R)-5-amino-6-methyl-N-((5-phenylpyridin-2-yl)methyl)-N-(5,6,7,8-tetrahydroquinolin-8-yl)-1H-pyrrolo[3,2-b]pyridine-2-carboxamide] | < 0.5 nM | 486 nM
4 | Cc1cc2[nH]c(C(=O)N(Cc3ccc(-c4c(F)cncc4F)cn3)[C@@H]3CCCc4cccnc43)cc2nc1N [Example A3, (R)-5-amino-N-((3′,5′-difluoro-[3,4′-bipyridin]-6-yl)methyl)-6-methyl-N-(5,6,7,8-tetrahydroquinolin-8-yl)-1H-pyrrolo[3,2-b]pyridine-2-carboxamide] | 0.008 nM | 49 nM
5 | Cc1cc2[nH]c(C(=O)N(Cc3ccc(-c4c(C)cnn4C)cn3)[C@@H]3CCCc4cccnc43)cc2nc1N [Example A4, (R)-5-amino-N-((5-(1,4-dimethyl-1H-pyrazol-5-yl)pyridin-2-yl)methyl)-6-methyl-N-(5,6,7,8-tetrahydroquinolin-8-yl)-1H-pyrrolo[3,2-b]pyridine-2-carboxamide] | 30 nM | 2360 nM
6 | Cc1cc2[nH]c(C(=O)N(Cc3ccc(-c4c(F)cccc4F)cn3)[C@@H]3CCCc4cccnc43)c(Br)c2nc1N [Example A5, (R)-5-amino-3-bromo-N-((5-(2,6-difluorophenyl)pyridin-2-yl)methyl)-6-methyl-N-(5,6,7,8-tetrahydroquinolin-8-yl)-1H-pyrrolo[3,2-b]pyridine-2-carboxamide] | 167 nM | 3340 nM
7 | Cc1cc2[nH]c(C(=O)N(Cc3ccc(-c4c(F)cccc4F)cn3)C3CCCc4c(C(C)(C)O)ccnc43)cc2nc1N (stereo not shown) [Example A7, 5-amino-N-((5-(2,6-difluorophenyl)pyridin-2-yl)methyl)-N-(4-(2-hydroxypropan-2-yl)-5,6,7,8-tetrahydroquinolin-8-yl)-6-methyl-1H-pyrrolo[3,2-b]pyridine-2-carboxamide] | < 4.6 nM | 339 nM
8 | Cc1cc2[nH]c(C(=O)N(Cc3cc(Cl)c(-c4ccccc4)cn3)[C@@H]3CCCc4cccnc43)cc2nc1N [Example A8, (R)-5-amino-N-((4-chloro-5-phenylpyridin-2-yl)methyl)-6-methyl-N-(5,6,7,8-tetrahydroquinolin-8-yl)-1H-pyrrolo[3,2-b]pyridine-2-carboxamide] | < 4.6 nM | 2040 nM
9 | Cc1cc2[nH]c(C(=O)N(Cc3ccc(-c4cn[nH]c4)c(C)n3)C3CCCc4cccnc43)cc2nc1N (stereo not shown) [Example A9, 5-amino-6-methyl-N-((6-methyl-5-(1H-pyrazol-4-yl)pyridin-2-yl)methyl)-N-(5,6,7,8-tetrahydroquinolin-8-yl)-1H-pyrrolo[3,2-b]pyridine-2-carboxamide] | 86 nM | 4180 nM
10 | Cc1cc2[nH]c(C(=O)N(Cc3ccc(-c4c(Cl)cccc4Cl)cn3)C3CCCc4cccnc43)cc2nc1N (stereo not shown) [Example A10, 5-amino-N-((5-(2,6-dichlorophenyl)pyridin-2-yl)methyl)-6-methyl-N-(5,6,7,8-tetrahydroquinolin-8-yl)-1H-pyrrolo[3,2-b]pyridine-2-carboxamide] | 217 nM | 3480 nM
11 | Cc1cc2[nH]c(C(=O)N(Cc3ccc(-c4c(F)c(F)c(F)c(F)c4F)cn3)[C@@H]3CCCc4cccnc43)cc2nc1N [Example A11, (R)-5-amino-6-methyl-N-((5-(perfluorophenyl)pyridin-2-yl)methyl)-N-(5,6,7,8-tetrahydroquinolin-8-yl)-1H-pyrrolo[3,2-b]pyridine-2-carboxamide] | < 4.6 nM | 1470 nM
12 | Nc1nc2cc(C(=O)N(Cc3ccc(-c4c(F)cccc4F)cn3)[C@@H]3CCCc4cccnc43)[nH]c2cc1Br [Example A12, (R)-5-amino-6-bromo-N-((5-(2,6-difluorophenyl)pyridin-2-yl)methyl)-N-(5,6,7,8-tetrahydroquinolin-8-yl)-1H-pyrrolo[3,2-b]pyridine-2-carboxamide] | < 4.6 nM | 661 nM
13 | Cc1cc2[nH]c(C(=O)N(Cc3ccc(-c4ncnn4C)cn3)[C@@H]3CCCc4cccnc43)cc2nc1N [Example A13, (R)-5-amino-6-methyl-N-((5-(1-methyl-1H-1,2,4-triazol-5-yl)pyridin-2-yl)methyl)-N-(5,6,7,8-tetrahydroquinolin-8-yl)-1H-pyrrolo[3,2-b]pyridine-2-carboxamide] | 83 nM | > 10000 nM
14 | Cc1cc2[nH]c(C(=O)N(Cc3ccc(-c4c(F)cccc4Cl)cn3)C3CCCc4cccnc43)cc2nc1N (stereo not shown) [Example A14, 5-amino-N-((5-(2-chloro-6-fluorophenyl)pyridin-2-yl)methyl)-6-methyl-N-(5,6,7,8-tetrahydroquinolin-8-yl)-1H-pyrrolo[3,2-b]pyridine-2-carboxamide] | 2.9 nM | 1120 nM
15 | Cc1cc2[nH]c(C(=O)N(Cc3ccc(-c4c(F)cccc4C#N)cn3)C3CCCc4cccnc43)cc2nc1N (stereo not shown) [Example A15, 5-amino-N-((5-(2-cyano-6-fluorophenyl)pyridin-2-yl)methyl)-6-methyl-N-(5,6,7,8-tetrahydroquinolin-8-yl)-1H-pyrrolo[3,2-b]pyridine-2-carboxamide] | 4.3 nM | 424 nM
16 | Cc1cc2[nH]c(C(=O)N(Cc3ccc(-c4ccccn4)cn3)C3CCCc4cccnc43)cc2nc1N (stereo not shown) [Example A16, N-([2,3′-bipyridin]-6′-ylmethyl)-5-amino-6-methyl-N-(5,6,7,8-tetrahydroquinolin-8-yl)-1H-pyrrolo[3,2-b]pyridine-2-carboxamide] | 17 nM | 1640 nM
17 | Cc1cc2[nH]c(C(=O)N(Cc3ccc(-c4c(F)cccc4F)cn3)[C@@H]3CCCc4cccnc43)c(F)c2nc1N [Example A17, (R)-5-amino-N-((5-(2,6-difluorophenyl)pyridin-2-yl)methyl)-3-fluoro-6-methyl-N-(5,6,7,8-tetrahydroquinolin-8-yl)-1H-pyrrolo[3,2-b]pyridine-2-carboxamide] | 66 nM | 2840 nM
18 | Cc1cc2[nH]c(C(=O)N(Cc3ccc(-c4c(C)cnn4C)cc3F)C3CCCc4cccnc43)cc2nc1N (stereo not shown) [Example A18, 5-amino-N-(4-(1,4-dimethyl-1H-pyrazol-5-yl)-2-fluorobenzyl)-6-methyl-N-(5,6,7,8-tetrahydroquinolin-8-yl)-1H-pyrrolo[3,2-b]pyridine-2-carboxamide] | 21 nM | 2580 nM
19 | Cc1cc2[nH]c(C(=O)N(Cc3ccc(-c4c(F)cccc4F)cn3)[C@@H]3CCCc4cccnc43)c(I)c2nc1N [Example A19, (R)-5-amino-N-((5-(2,6-difluorophenyl)pyridin-2-yl)methyl)-3-iodo-6-methyl-N-(5,6,7,8-tetrahydroquinolin-8-yl)-1H-pyrrolo[3,2-b]pyridine-2-carboxamide] | < 4.6 nM | 288 nM
20 | Cc1cc2[nH]c(C(=O)N(Cc3ccc(-c4ccccc4)cn3)C3CCC3)cc2nc1N [Example B1, 5-amino-N-cyclobutyl-6-methyl-N-((5-phenylpyridin-2-yl)methyl)-1H-pyrrolo[3,2-b]pyridine-2-carboxamide] | 359 nM | > 10000 nM
21 | COCC(COC)N(Cc1ccc(-c2c(F)cccc2F)cn1)C(=O)c1cc2nc(N)c(C)cc2[nH]1 [Example B2, 5-amino-N-((5-(2,6-difluorophenyl)pyridin-2-yl)methyl)-N-(1,3-dimethoxypropan-2-yl)-6-methyl-1H-pyrrolo[3,2-b]pyridine-2-carboxamide] | 5.5 nM | 1220 nM
22 | Cc1cc2[nH]c(C(=O)N(Cc3ccc(-c4c(F)cccc4F)cn3)C3CC(F)(F)C3)cc2nc1N [Example B3, 5-amino-N-(3,3-difluorocyclobutyl)-N-((5-(2,6-difluorophenyl)pyridin-2-yl)methyl)-6-methyl-1H-pyrrolo[3,2-b]pyridine-2-carboxamide] | 864 nM | > 10000 nM
23 | Cc1cc2[nH]c(C(=O)N(Cc3ccc(-c4ccccc4)cn3)C3CC3)cc2nc1N [Example B4, 5-amino-N-cyclopropyl-6-methyl-N-((5-phenylpyridin-2-yl)methyl)-1H-pyrrolo[3,2-b]pyridine-2-carboxamide] | 7820 nM | > 10000 nM
